Assay results from the NIST ThermoML archive (doi:10.1016/j.jct.2013.10.017).
± gives the expanded uncertainty stated by the source.

How the values were obtained:
[1] = 101.33 kPa, Liquid, Vibrating tube method
[2] = refractive index (Na D-line) (dimensionless); conditions: 101.33 kPa, Liquid, Standard Abbe refractometry
[3] = activity coefficient (dimensionless); of the first substance listed, at infinite dilution; xn = mol fraction of the nth substance listed; conditions: 100 kPa, Liquid, Chromatography, x1 = 0

Compound: CCn1cc[n+](C)c1.COCCOCCOS(=O)(=O)[O-] [1-ethyl-3-methylimidazolium 2-(2-methoxyethoxy) ethylsulfate]
- mass density ([1]; 308.2 K): 1230.4 ± 1.3 kg/m3
- mass density ([1]; 313.2 K): 1226.21 ± 1.3 kg/m3
- mass density ([1]; 323.2 K): 1219.6 ± 1.3 kg/m3
- mass density ([1]; 333.2 K): 1213.66 ± 1.3 kg/m3
- refractive index ([2]; 308.2 K): 1.47929 ± 0.00051
- refractive index ([2]; 313.2 K): 1.47565 ± 0.00051
- refractive index ([2]; 323.2 K): 1.47281 ± 0.00051
- refractive index ([2]; 333.2 K): 1.46995 ± 0.00051

Compound: C=CCCCCC [1-heptene] + CCn1cc[n+](C)c1.COCCOCCOS(=O)(=O)[O-]
- activity coefficient ([3]; 308.15 K): 71.3 ± 4.7
- activity coefficient ([3]; 313.15 K): 71.7 ± 3.2
- activity coefficient ([3]; 323.15 K): 68.6 ± 4.8
- activity coefficient ([3]; 333.15 K): 65.6 ± 6.1

Compound: C#CCCCCC [1-heptyne] + CCn1cc[n+](C)c1.COCCOCCOS(=O)(=O)[O-]
- activity coefficient ([3]; 308.15 K): 9.61 ± 0.48
- activity coefficient ([3]; 313.15 K): 9.76 ± 0.56
- activity coefficient ([3]; 323.15 K): 10.1 ± 0.83
- activity coefficient ([3]; 333.15 K): 10.3 ± 1

Compound: C#CCCCC [1-hexyne] + CCn1cc[n+](C)c1.COCCOCCOS(=O)(=O)[O-]
- activity coefficient ([3]; 308.15 K): 6.05 ± 0.32
- activity coefficient ([3]; 313.15 K): 6.22 ± 0.38
- activity coefficient ([3]; 323.15 K): 6.49 ± 0.56
- activity coefficient ([3]; 333.15 K): 6.73 ± 0.65

Compound: C=CCCCCCCC [1-nonene] + CCn1cc[n+](C)c1.COCCOCCOS(=O)(=O)[O-]
- activity coefficient ([3]; 308.15 K): 168 ± 7.6
- activity coefficient ([3]; 313.15 K): 168 ± 9.1
- activity coefficient ([3]; 323.15 K): 160 ± 7.1
- activity coefficient ([3]; 333.15 K): 149 ± 8.9

Compound: C#CCCCCCCC [1-nonyne] + CCn1cc[n+](C)c1.COCCOCCOS(=O)(=O)[O-]
- activity coefficient ([3]; 308.15 K): 23.9 ± 1.1
- activity coefficient ([3]; 313.15 K): 24.7 ± 1.1
- activity coefficient ([3]; 323.15 K): 25.7 ± 1.9
- activity coefficient ([3]; 333.15 K): 26.4 ± 2.4

Compound: C#CCCCCCC [1-octyne] + CCn1cc[n+](C)c1.COCCOCCOS(=O)(=O)[O-]
- activity coefficient ([3]; 308.15 K): 16.4 ± 0.7
- activity coefficient ([3]; 313.15 K): 16.7 ± 0.9
- activity coefficient ([3]; 323.15 K): 17.1 ± 1.3
- activity coefficient ([3]; 333.15 K): 17.4 ± 1.7

Compound: C=CCCC [1-pentene] + CCn1cc[n+](C)c1.COCCOCCOS(=O)(=O)[O-]
- activity coefficient ([3]; 308.15 K): 26.1 ± 2.4
- activity coefficient ([3]; 313.15 K): 26.5 ± 1.5
- activity coefficient ([3]; 323.15 K): 26.3 ± 2
- activity coefficient ([3]; 333.15 K): 25.4 ± 2

Compound: C#CCCC [1-pentyne] + CCn1cc[n+](C)c1.COCCOCCOS(=O)(=O)[O-]
- activity coefficient ([3]; 308.15 K): 3.62 ± 0.19
- activity coefficient ([3]; 313.15 K): 3.74 ± 0.25
- activity coefficient ([3]; 323.15 K): 3.98 ± 0.4
- activity coefficient ([3]; 333.15 K): 4.13 ± 0.4

Compound: CC(C)=O [acetone] + CCn1cc[n+](C)c1.COCCOCCOS(=O)(=O)[O-]
- activity coefficient ([3]; 308.15 K): 1.42 ± 0.07
- activity coefficient ([3]; 313.15 K): 1.46 ± 0.07
- activity coefficient ([3]; 323.15 K): 1.47 ± 0.11
- activity coefficient ([3]; 333.15 K): 1.51 ± 0.13

Compound: c1ccccc1 [benzene] + CCn1cc[n+](C)c1.COCCOCCOS(=O)(=O)[O-]
- activity coefficient ([3]; 308.15 K): 2.31 ± 0.12
- activity coefficient ([3]; 313.15 K): 2.33 ± 0.15
- activity coefficient ([3]; 323.15 K): 2.41 ± 0.18
- activity coefficient ([3]; 333.15 K): 2.48 ± 0.22

Compound: CCC(C)=O [butanone] + CCn1cc[n+](C)c1.COCCOCCOS(=O)(=O)[O-]
- activity coefficient ([3]; 308.15 K): 2.33 ± 0.12
- activity coefficient ([3]; 313.15 K): 2.34 ± 0.13
- activity coefficient ([3]; 323.15 K): 2.37 ± 0.18
- activity coefficient ([3]; 333.15 K): 2.42 ± 0.21

Compound: C1CCCCCC1 [cycloheptane] + CCn1cc[n+](C)c1.COCCOCCOS(=O)(=O)[O-]
- activity coefficient ([3]; 308.15 K): 60.3 ± 2.9
- activity coefficient ([3]; 313.15 K): 58.7 ± 3.2
- activity coefficient ([3]; 323.15 K): 54.1 ± 3.8
- activity coefficient ([3]; 333.15 K): 50.6 ± 5

Compound: C1CCCCC1 [cyclohexane] + CCn1cc[n+](C)c1.COCCOCCOS(=O)(=O)[O-]
- activity coefficient ([3]; 308.15 K): 45.4 ± 2.1
- activity coefficient ([3]; 313.15 K): 45 ± 2.9
- activity coefficient ([3]; 323.15 K): 41.5 ± 3.2
- activity coefficient ([3]; 333.15 K): 38.8 ± 4.1

Compound: C1CCCCCCC1 [cyclooctane] + CCn1cc[n+](C)c1.COCCOCCOS(=O)(=O)[O-]
- activity coefficient ([3]; 308.15 K): 82.6 ± 3.7
- activity coefficient ([3]; 313.15 K): 79.8 ± 3.6
- activity coefficient ([3]; 323.15 K): 73.4 ± 4.3
- activity coefficient ([3]; 333.15 K): 68.2 ± 6.2

Compound: C1CCCC1 [cyclopentane] + CCn1cc[n+](C)c1.COCCOCCOS(=O)(=O)[O-]
- activity coefficient ([3]; 308.15 K): 27.1 ± 1.3
- activity coefficient ([3]; 313.15 K): 26 ± 1.5
- activity coefficient ([3]; 323.15 K): 24.1 ± 2
- activity coefficient ([3]; 333.15 K): 22.8 ± 1.4

Compound: CCO [ethanol] + CCn1cc[n+](C)c1.COCCOCCOS(=O)(=O)[O-]
- activity coefficient ([3]; 308.15 K): 0.719 ± 0.032
- activity coefficient ([3]; 313.15 K): 0.705 ± 0.033
- activity coefficient ([3]; 323.15 K): 0.664 ± 0.03
- activity coefficient ([3]; 333.15 K): 0.666 ± 0.029

Compound: CCc1ccccc1 [ethylbenzene] + CCn1cc[n+](C)c1.COCCOCCOS(=O)(=O)[O-]
- activity coefficient ([3]; 308.15 K): 8.04 ± 0.38
- activity coefficient ([3]; 313.15 K): 8.04 ± 0.47
- activity coefficient ([3]; 323.15 K): 8.06 ± 0.61
- activity coefficient ([3]; 333.15 K): 8.17 ± 0.74

Compound: CCCCCCC [heptane] + CCn1cc[n+](C)c1.COCCOCCOS(=O)(=O)[O-]
- activity coefficient ([3]; 308.15 K): 158 ± 7.1
- activity coefficient ([3]; 313.15 K): 158 ± 8
- activity coefficient ([3]; 323.15 K): 147 ± 6.8
- activity coefficient ([3]; 333.15 K): 139 ± 6.2

Compound: C=CCCCC [hex-1-ene] + CCn1cc[n+](C)c1.COCCOCCOS(=O)(=O)[O-]
- activity coefficient ([3]; 308.15 K): 45.6 ± 2.4
- activity coefficient ([3]; 313.15 K): 44.7 ± 2.2
- activity coefficient ([3]; 323.15 K): 43.4 ± 4.1
- activity coefficient ([3]; 333.15 K): 40.3 ± 3.2

Compound: CCCCCC [hexane] + CCn1cc[n+](C)c1.COCCOCCOS(=O)(=O)[O-]
- activity coefficient ([3]; 308.15 K): 103 ± 4.9
- activity coefficient ([3]; 313.15 K): 102 ± 4.9
- activity coefficient ([3]; 323.15 K): 94 ± 5.2
- activity coefficient ([3]; 333.15 K): 85.7 ± 7.4

Compound: CO [methanol] + CCn1cc[n+](C)c1.COCCOCCOS(=O)(=O)[O-]
- activity coefficient ([3]; 308.15 K): 0.39 ± 0.027
- activity coefficient ([3]; 313.15 K): 0.392 ± 0.027
- activity coefficient ([3]; 323.15 K): 0.374 ± 0.031
- activity coefficient ([3]; 333.15 K): 0.369 ± 0.027

Compound: CC1CCCCC1 [methylcyclohexane] + CCn1cc[n+](C)c1.COCCOCCOS(=O)(=O)[O-]
- activity coefficient ([3]; 308.15 K): 71.9 ± 3.2
- activity coefficient ([3]; 313.15 K): 70.6 ± 3.3
- activity coefficient ([3]; 323.15 K): 65.8 ± 4.1
- activity coefficient ([3]; 333.15 K): 62.3 ± 5.7

Compound: CCCCCCCCC [nonane] + CCn1cc[n+](C)c1.COCCOCCOS(=O)(=O)[O-]
- activity coefficient ([3]; 308.15 K): 292 ± 16
- activity coefficient ([3]; 313.15 K): 303 ± 14
- activity coefficient ([3]; 323.15 K): 288 ± 20
- activity coefficient ([3]; 333.15 K): 281 ± 13

Compound: C=CCCCCCC [oct-1-ene] + CCn1cc[n+](C)c1.COCCOCCOS(=O)(=O)[O-]
- activity coefficient ([3]; 308.15 K): 114 ± 5.6
- activity coefficient ([3]; 313.15 K): 113 ± 6.1
- activity coefficient ([3]; 323.15 K): 107 ± 5.6
- activity coefficient ([3]; 333.15 K): 101 ± 8

Compound: CCCCCCCC [octane] + CCn1cc[n+](C)c1.COCCOCCOS(=O)(=O)[O-]
- activity coefficient ([3]; 308.15 K): 215 ± 9.9
- activity coefficient ([3]; 313.15 K): 216 ± 9.9
- activity coefficient ([3]; 323.15 K): 212 ± 10
- activity coefficient ([3]; 333.15 K): 202 ± 10

Compound: CCCCC [pentane] + CCn1cc[n+](C)c1.COCCOCCOS(=O)(=O)[O-]
- activity coefficient ([3]; 308.15 K): 65.8 ± 4.5
- activity coefficient ([3]; 313.15 K): 65.6 ± 4
- activity coefficient ([3]; 323.15 K): 60.8 ± 2.9
- activity coefficient ([3]; 333.15 K): 59 ± 5.1

Compound: CCCO [propan-1-ol] + CCn1cc[n+](C)c1.COCCOCCOS(=O)(=O)[O-]
- activity coefficient ([3]; 308.15 K): 1.01 ± 0.05
- activity coefficient ([3]; 313.15 K): 0.989 ± 0.056
- activity coefficient ([3]; 323.15 K): 0.942 ± 0.055
- activity coefficient ([3]; 333.15 K): 0.913 ± 0.063

Compound: Cc1ccccc1 [toluene] + CCn1cc[n+](C)c1.COCCOCCOS(=O)(=O)[O-]
- activity coefficient ([3]; 308.15 K): 4.43 ± 0.21
- activity coefficient ([3]; 313.15 K): 4.45 ± 0.27
- activity coefficient ([3]; 323.15 K): 4.51 ± 0.33
- activity coefficient ([3]; 333.15 K): 4.62 ± 0.45
